Laboratory results published in patent EP0352000A2, “Retroviral protease binding peptides” (SMITHKLINE BECKMAN CORPORATION, priority 1988, dated 1990).
Where a SMILES comes first, the peptide text is derived from it. [ ]: non-standard residue; d: D form. The star is where a group is joined. Sta = CC(C)C[C@H](N)[C@@H](O)CC(=O)O; Isovaleryl = CC(C)CC(=O)*

How the values were obtained:
[1] = system: retroviral proteases associated with bovine leukemia virus; details: cited from earlier work
[2] = biological target: retroviral proteases associated with Moloney murine leukemia virus (Moloney murine leukemia virus, UniProt P03355); details: cited from earlier work
Sequence of retroviral proteases associated with Moloney murine leukemia virus (P03355 535-659): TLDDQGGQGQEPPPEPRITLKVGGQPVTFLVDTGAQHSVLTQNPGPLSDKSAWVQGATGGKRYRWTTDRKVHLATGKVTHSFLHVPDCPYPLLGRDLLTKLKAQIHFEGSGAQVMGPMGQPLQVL

[3] = biological target: retroviral proteases associated with human T-cell leukemia virus (Human T-cell leukemia virus 1, UniProt P10274); details: cited from earlier work
Sequence of retroviral proteases associated with human T-cell leukemia virus (P10274 450-574): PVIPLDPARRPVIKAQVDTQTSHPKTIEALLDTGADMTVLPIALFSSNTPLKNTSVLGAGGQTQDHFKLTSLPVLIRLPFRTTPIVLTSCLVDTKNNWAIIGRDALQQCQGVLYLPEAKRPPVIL

HIV protease = details: substrate of HIV protease; MENDT buffer pH 6.0, 37°C
Experimental: The enzyme used to assay the peptide of this invention was produced in this manner and purified from the cell pellet as follows. The E. coli cell pellet was resuspended in a buffer consisting of 50 mM Tris-­HCl, pH 7.5; 1.0 mM each DTT, EDTA and PMSF (phenylmethylsulfonyl fluoride). The cells were lysed by sonication and insoluble material was removed by centrifugation at 15,000 x g av, for 15 min. The clarified supernatant was then brought to 40% of saturation with ammonium sulfate This suspension was stirred at room temperature for 30 min. and then centrifuged as above. […] The effluent of the column was monitored at 280 nm and 1 min. fractions collected.
Initial rate data for oligopeptides were determined at pH 6.0, 37°C. […] Samples were centrifuged at 17,000 rpm for 5 min., and the peptide substrates and products were separated and quantified (by peak integration) by reverse phase HPLC. Initial rates were determined as (mM peptide product formed)/min based on the percentage of conversion of substrate to product for a given concentration of substrate. […] Kinetic constants (Michaelis constants, maximal velocities) were determined by fitting initial rate data to the Michaelis-Menten equation (v = Vmax(S)/(Km + (S))) using the Fortran program of Cleland (W. W. Cleland, Adv. Enzymol. 29, 1, (1967)). […]

Row | Compound | inhibitor of the retroviral protease [1] | inhibitor of the retroviral protease [2] | inhibitor of the retroviral protease [3] | Km (HIV protease)
1 | CC(C)CC(=O)N[C@H](C(=O)N[C@H](C(=O)N[C@@H](CC(C)C)[C@@H](O)CC(=O)N[C@@H](C)C(=O)N[C@@H](CC(C)C)[C@@H](O)CC(=O)O)C(C)C)C(C)C [pepstatin] (Isovaleryl-VV[Sta]A[Sta]-OH) | weak inhibitor | weak inhibitor | weak inhibitor | 
2 | N-acetyl-L-arginyl-L-alanyl-L-seryl-L-glutaminyl-L-asparaginyl-L-tyrosyl-L-prolyl-L-valyl-L-valinamide |  |  |  | 7 mM
